Paper PMC11523213, “Fluorinated N-Heterocyclic Carbene Silver(I) Complexes with High Cancer Cell Selectivity” (Organometallics, 2024)
Where two headings read alike, the source gives them in different places.

How the values were obtained:
[1] = system: ARPE-19; assay: Cell viability (MTT) assay, 24 h, noncancerous cells; format: cell-based, human; settings: n = 9, noncancerous retinal epithelia, read-out: IC50 ± SD, ARPE-19
Experimental: (§1) All cells were treated with compounds for 24 h, and cell viability was determined via the MTT assay. […] The nonfluorinated benzyl–imidazole complex [Ag2(L5)2](PF6)2 was synthesized and screened to determine if the fluorine has any influence on cytotoxicity.
(§2) All cytotoxicity assays were conducted using human cell lines: breast adenocarcinomas (MDA-MB-231 and MCF-7) and non-cancerous epithelial retinal (ARPE-19) cell lines. All cell lines were routinely maintained as monolayer cultures in an appropriate complete medium: MCF-7 and ARPE-19 in high glucose DMEM complete medium (including 10% FBS, 1 mM sodium pyruvate, 2 mM L-glutamine and 1% pen-strep) and MDA-MB-231 in RPMI-1640 complete medium (including 10% FBS, 1 mM sodium pyruvate, 2 mM L-glutamine and 1% pen-strep) and grown in either T-25 or T-75 flasks at 37 °C and 5% CO2. Prior to chemosensitivity studies, cell monolayers were passaged using Trypsin-EDTA (0.05%) and diluted to a concentration of 4 × 10^4 cells/mL. All assays were conducted using 96-well plates, in which 100 μL of the cell suspension was added for 24 h at 37 °C and 5% CO2 and then 100 μL of compound/media dilutions for a further 24 h (compound stocks were made using sterile DMSO at 100 mM prior to dilution and a maximum of 0.1% DMSO used in each assay).

[2] = system: MDA-MB-231; assay: Cell viability (MTT) assay, 24 h; format: cell-based, human; settings: for IC50: 24 h treatment, MTT, n = 9, read-out: IC50 ± SD, MDA-MB-231; for MCF-7/MDA-MB-231 SR (selectivity ratio): ratio of IC50 MCF-7 versus MDA-MB-231
Experimental: as §1, §2

[3] = system: MCF-7; assay: Cell viability (MTT) assay, 24 h; format: cell-based, human; settings: for IC50: 24 h treatment, MTT, n = 9, read-out: IC50 ± SD, MCF-7
Experimental: as §1, §2

[4] = system: DNA; set-up: method as in PMID 27060216; settings: cited from earlier work
[5] = Homo sapiens, ARPE-19, 24 h treatment

Structure (SMILES)	IC50 ([1]; 24 h treatment)	IC50 [2]	MCF-7/MDA-MB-231 SR (selectivity ratio) [2]	IC50 [3]	Selectivity index (SI) MCF-7 vs ARPE-19 ([3]; SI > 1 indicates selectivity for the breast cancer line, * = minimum value)	IC50 [1, 5]	IC50 ([2]; Homo sapiens, MDA-MB-231)	IC50 ([3]; Homo sapiens, MCF7)	Binding constant to DNA [4]
[NH2][Pt]([NH2])([Cl])[Cl] [CDDP, cisplatin, reference compound]	> 100 µM	> 100 µM	< 0.54	54 ± 3 µM	≥ 1.84				
Fc1ccc(C[n+]2cn(Cn3c[n+](Cc4ccc(F)cc4)c4ccccc43)c3ccccc32)cc1 [H2L4(PF6)2, 1,1′-Bis-(4-fluorobenzyl)-3,3′-methylenedibenzimidazolium dihexafluorophosphate]						> 100 µM	> 100 µM	> 100 µM	
Fc1ccc(Cn2c[n+](Cc3ccc(F)cc3)c3ccccc32)cc1 [HL2(PF6), 1,3-Bis-(4-fluorobenzyl)benzimidazolium hexafluorophosphate]			> 2.35			> 100 µM	42.6 ± 0.05 µM	> 100 µM	
COc1cccc2c1C(=O)c1c(O)c3c(c(O)c1C2=O)C[C@@](O)(C(=O)CO)C[C@@H]3O[C@H]1C[C@H](N)[C@H](O)[C@H](C)O1 [doxorubicin]									2.33 ± 0.33 × 10^4 M^–1
